US9587223B2, “Protocols for making hepatocytes from embryonic stem cells” (Asterias Biotherapeutics, Inc., priority 2000, dated 2017)

How the values were obtained:
[1] = system: hES cells (embryoid bodies)
Description: In this experiment, hES cells were maintained on primary mouse embryonic fibroblasts in serum-free medium according to standard methods.
The EBs were fed every other day.
Various analogs of butyrate were also tested at 5 mM.

[2] = system: hES derived embryoid bodies; assay: Marker analysis by immunocytochemistry, PAS glycogen stain and BrdU labelling; format: cell-based, human; conditions: 20% FBS and 5 mM sodium n-butyrate
Description: The morphology of the differentiated cells was remarkably uniform, showing a large polygonal surface and binucleated center characteristic of mature hepatocytes.
On the sixth day after plating in the differentiation agent, the cells were analyzed for expression of markers by RT-PCR and immunocytochemistry. Glycogen content in these cells was determined using periodic acid Schiff stain. The number of cells in S phase of cell cycle was determined by incubating the cells with 10 μM BrdU on day 5 after plating, and subsequently staining with anti-BrdU antibody 24 hours later.

For `CC(/C=C/C(=O)NO)=C\[C@@H](C)C(=O)c1ccc(N(C)C)cc1` [Trichostatin A], the toxicity to cells ([1]; at 2.5-100 μM) was “toxic”, the hepatocyte differentiation ([1]; at 10-50 nM) was “ineffective” and the “hepatocyte differentiation and selection against other cell types” value ([1]; at 75-100 nM) was “appeared both to induce hepatocyte differentiation, and to select against survival of other cell types”.

In the case of `CCCC(=O)[O-].[Na+]` [sodium n-butyrate], the “cell survival one day after plating” value ([1]; EBs plated in 20% FBS and 5 mM sodium butyrate) is reported as “large proportion of apparently dead cells”, the “% positive cells, BrdU staining” value ([2]; 10 μM BrdU on day 5, stained 24 hours later) is reported as 16% and the “% positive cells, Glycogen staining” value ([2]; periodic acid Schiff stain) is reported as 60%. The “% positive cells, Albumin” value ([2]; sixth day after plating) was 55%, the “% positive cells, CK8” value ([2]; sixth day after plating) was 100% and the “% positive cells, CK18” value ([2]; sixth day after plating) was 100%. The “% positive cells, CK19” value ([2]; sixth day after plating) was 100%, the “% positive cells, Desmin” value ([2]; sixth day after plating) was 0% and the “% positive cells, α1-antitrypsin” value ([2]; sixth day after plating) was 90%. For the same compound, the “% positive cells, α-fetoprotein” value ([2]; sixth day after plating) was 0%.
